Measured values taken from patent publication US11566007B2, “Ras inhibitors” (Revolution Medicines, Inc., priority 2019, dated 2023).

Tests used:
[1] = target: KRAS G12D (Homo sapiens (Human), UniProt P01116+P62937, G12D); test: Ras-Raf (BRAF RBD) disruption / FRET / MOA assay, KRAS G12D; format: biochemical; conditions: Ras-Raf disruption/FRET/MOA assay; class symbols; read-out: KRAS G12D FRET data IC50
Procedure: (§1) The purpose of this biochemical assay is to measure the ability of test compounds to facilitate ternary complex formation between a nucleotide-loaded Ras isoform and cyclophilin A; the resulting ternary complex disrupts binding to a BRAF^RBD construct, inhibiting Ras signaling through a RAF effector.
(§2) Compound is present in plate wells as a 10-point 3-fold dilution series starting at a final concentration of 30 μM. After incubation at 25° C. for 3 hours, a mixture of Anti-His Eu-W1024 and anti-GST allophycocyanin is then added to assay sample wells at final concentrations of 10 nM and 50 nM, respectively, and the reaction incubated for an additional 1.5 hours. […] Compounds that facilitate disruption of a Ras:RAF complex are identified as those eliciting a decrease in the TR-FRET ratio relative to DMSO control wells.
(§3) This protocol may also be executed substituting other Ras proteins or nucleotides.
(§4) The purpose of this biochemical assay was to measure the ability of test compounds to facilitate ternary complex formation between a nucleotide-loaded K-Ras isoform and Cyclophilin A; the resulting ternary complex disrupts binding to a BRAF^RBD construct, inhibiting K-Ras signaling through a RAF effector. Data is reported as IC50 values.
as §2, with “Compound was” for “Compound is”, “allophycocyanin was” for “allophycocyanin is”, “a K-Ras:RAF” for “a Ras:RAF”, “complex were” for “complex are”

[2] = target: KRAS G12S (Homo sapiens (Human), UniProt P01116+P62937, G12S); test: Ras-Raf (BRAF RBD) disruption / FRET / MOA assay, KRAS G12S; format: biochemical; conditions: Ras-Raf disruption/FRET/MOA assay; class symbols; read-out: KRAS G12S FRET data IC50
KRAS G12S, sequence (P01116-2 other isoform, or with tags, fused parts or gaps G12S): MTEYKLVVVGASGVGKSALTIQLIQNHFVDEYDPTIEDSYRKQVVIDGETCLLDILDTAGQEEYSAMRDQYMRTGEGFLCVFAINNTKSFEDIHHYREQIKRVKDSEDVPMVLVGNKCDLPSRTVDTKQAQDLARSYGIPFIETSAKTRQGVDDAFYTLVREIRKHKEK
KRAS G12S, sequence (P62937 whole entry): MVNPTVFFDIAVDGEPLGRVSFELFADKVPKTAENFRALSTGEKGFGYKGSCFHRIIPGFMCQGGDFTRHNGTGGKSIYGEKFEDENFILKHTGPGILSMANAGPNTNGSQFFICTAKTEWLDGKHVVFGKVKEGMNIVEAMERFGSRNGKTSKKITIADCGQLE
Procedure: as §1, §2, §3, §4
as §2, with “Compound was” for “Compound is”, “allophycocyanin was” for “allophycocyanin is”, “a K-Ras:RAF” for “a Ras:RAF”, “complex were” for “complex are”

KRAS G12D, sequence (P01116-2 other isoform, or with tags, fused parts or gaps G12D): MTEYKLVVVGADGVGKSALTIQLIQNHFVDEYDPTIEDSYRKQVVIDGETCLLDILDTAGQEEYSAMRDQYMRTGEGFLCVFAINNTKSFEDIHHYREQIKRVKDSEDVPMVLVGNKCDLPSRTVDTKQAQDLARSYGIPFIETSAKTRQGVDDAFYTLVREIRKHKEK
KRAS G12D, sequence (P62937 whole entry, canonical isoform): as the sequence (P62937 whole entry) above

Row | SMILES | IC50 [1] | IC50 [2]
1 | C=CC(=O)N1CC(C(=O)N(C)[C@H](C(=O)N[C@H]2Cc3cc(O)cc(c3)-c3ccc4c(c3)c(c(-c3cccnc3COC)n4CC)CC(C)(C)COC(=O)[C@@H]3CCCN(N3)C2=O)C(C)C)C1 (single isomer, unassigned) [Example A070] | 1 to 10 µM | 100 to 1000 nM
2 | C=CC(=O)N1CC[C@H](C(=O)N(C)[C@H](C(=O)N[C@H]2Cc3cc(O)cc(c3)-c3ccc4c(c3)c(c(-c3ccccc3CN(C)C)n4CC)CC(C)(C)COC(=O)[C@@H]3CCCN(N3)C2=O)C(C)C)C1 [Example A005] | 1 to 10 µM | 100 to 1000 nM
3 | C=CC(=O)N1CC[C@H](C(=O)N(C)[C@H](C(=O)N[C@H]2Cc3cc(O)cc(c3)-c3ccc4c(c3)c(c(-c3ccccc3CCOC)n4CC)CC(C)(C)COC(=O)[C@@H]3CCCN(N3)C2=O)C2CCOCC2)C1 [Example A006] | > 10 µM | 1000 to 10000 nM
4 | C=CC(=O)N1CC[C@H](C(=O)N(C)[C@H](C(=O)N[C@H]2Cc3cc(OC(=O)CN)cc(c3)-c3ccc4c(c3)c(c(-c3ccccc3CCOC)n4CC)CC(C)(C)COC(=O)[C@@H]3CCCN(N3)C2=O)C(C)C)C1 [Example A008] | > 10 µM | 1000 to 10000 nM
5 | C=CC(=O)N1CC[C@H](C(=O)N(C)[C@H](C(=O)N[C@H]2Cc3cc(cc(O)c3F)-c3ccc4c(c3)c(c(-c3ccccc3CCOC)n4CC)CC(C)(C)COC(=O)[C@@H]3CCCN(N3)C2=O)C(C)C)C1 [Example A009] | > 10 µM | > 10000 nM
6 | C=CC(=O)N1CC[C@H](C(=O)N(C)[C@H](C(=O)N[C@H]2Cc3cc(O)cc(c3)-c3ccc4c(c3)c(c(-c3ccc(CN5CCCC5)cc3)n4CC)CC(C)(C)COC(=O)[C@@H]3CCCN(N3)C2=O)C(C)C)C1 [Example A010] | > 10 µM | 1000 to 10000 nM
7 | C=CC(=O)N1CCCN(C(=O)N(C)[C@H](C(=O)N[C@H]2Cc3cc(O)cc(c3)-c3ccc4c(c3)c(c(-c3ccccc3CCOC)n4CC)CC(C)(C)COC(=O)[C@@H]3CCCN(N3)C2=O)C(C)C)CC1 [Example A013] | > 10 µM | 1000 to 10000 nM
8 | C=CC(=O)N1CCC(C(=O)N(C)[C@H](C(=O)N[C@H]2Cc3cc(O)cc(c3)-c3ccc4c(c3)c(c(-c3ccccc3CCOC)n4CC)CC(C)(C)COC(=O)[C@@H]3CCCN(N3)C2=O)C(C)C)CC1 [Example A014] | > 10 µM | 1000 to 10000 nM
9 | C=CC(=O)N1CC[C@H](C(=O)N(C)[C@H](C(=O)N[C@H]2Cc3cc(O)cc(c3)-c3ccc4c(c3)c(c(-c3ccccc3OC)n4CC)CC(C)(C)COC(=O)[C@@H]3CCCN(N3)C2=O)C(C)C)C1 [Example A017] | > 10 µM | 1000 to 10000 nM
10 | C=CC(=O)N1CCN(C(=O)N(C)[C@H](C(=O)N[C@H]2Cc3cc(O)cc(c3)-c3ccc4c(c3)c(c(-c3ccccc3CCOC)n4CC)CC(C)(C)COC(=O)[C@@H]3CCCN(N3)C2=O)C(C)C)CC1 [Example A018] | > 10 µM | 1000 to 10000 nM
11 | C=CC(=O)N1CCC(F)(C(=O)N(C)[C@H](C(=O)N[C@H]2Cc3cc(O)cc(c3)-c3ccc4c(c3)c(c(-c3ccccc3CN(C)C)n4CC)CC(C)(C)COC(=O)[C@@H]3CCCN(N3)C2=O)C(C)C)CC1 [Example A020] | > 10 µM | 1000 to 10000 nM
12 | C=CC(=O)N1CC[C@H](C(=O)N(C)[C@H](C(=O)N[C@H]2Cc3cc(O)cc(c3)-c3ccc4c(c3)c(c(-c3ccc(CC(=O)O)cc3)n4CC)CC(C)(C)COC(=O)[C@@H]3CCCN(N3)C2=O)C(C)C)C1 [Example A021] | > 10 µM | > 10000 nM
13 | C=CC(=O)N1CC[C@H](C(=O)N(C)[C@H](C(=O)N[C@H]2Cc3cc(O)cc(c3)-c3ccc4c(c3)c(c(-c3ccccc3[C@H](C)OC)n4CC)CC(C)(C)COC(=O)[C@@H]3CCCN(N3)C2=O)C(C)C)C1 [Example A022] | 1 to 10 µM | 100 to 1000 nM
14 | C=CC(=O)N1CC[C@H](C(=O)N(C)[C@H](C(=O)N[C@H]2Cc3cccc(c3)-c3ccc4c(c3)c(c(-c3ccccc3CCOC)n4CC)CC(C)(C)COC(=O)[C@@H]3CCCN(N3)C2=O)C(C)C)C1 [Example A024] | > 10 µM | > 10000 nM
15 | C=CC(=O)N1CC[C@H](C(=O)N(C)[C@H](C(=O)N[C@H]2Cc3cc(O)cc(c3)-c3ccc4c(c3)c(c(-c3ccccc3COC)n4CC)CC(C)(C)COC(=O)[C@@H]3CCCN(N3)C2=O)C2CCCC2)C1 [Example A027] | > 10 µM | 100 to 1000 nM
16 | C=CC(=O)N1CC[C@H](C(=O)N(C)[C@H](C(=O)N[C@H]2Cc3cc(O)cc(c3)-c3ccc4c(c3)c(c(-c3ccccc3[C@@H](C)OC)n4CC)CC(C)(C)COC(=O)[C@@H]3CCCN(N3)C2=O)C(C)C)C1 [Example A029] | 1 to 10 µM | 100 to 1000 nM

Row | SMILES | IC50 [1] | IC50 [2]
17 | C=CC(=O)N1CC[C@H](C(=O)N(C)[C@H](C(=O)N[C@H]2Cc3cc(O)cc(c3)-c3ccc4c(c3)c(c(-c3cccc(CN(C)C)c3)n4CC)CC(C)(C)COC(=O)[C@@H]3CCCN(N3)C2=O)C(C)C)C1 [Example A030] | > 10 µM | 1000 to 10000 nM
18 | C=CC(=O)N1CC2(CCN([C@H](C(=O)N[C@H]3Cc4cc(O)cc(c4)-c4ccc5c(c4)c(c(-c4ccccc4CCOC)n5CC)CC(C)(C)COC(=O)[C@@H]4CCCN(N4)C3=O)C(C)C)C2=O)C1 [Example A031] | > 10 µM | 1000 to 10000 nM
19 | C=CC(=O)N1CC[C@H](C(=O)N(C)[C@H](C(=O)N[C@H]2Cc3cc(OC(=O)CCC(=O)O)cc(c3)-c3ccc4c(c3)c(c(-c3ccccc3CCOC)n4CC)CC(C)(C)COC(=O)[C@@H]3CCCN(N3)C2=O)C(C)C)C1 [Example A032] | > 10 µM | 
20 | C=CC(=O)N1CC[C@H](C(=O)N(C)[C@H](C(=O)N[C@H]2Cc3cc(O)cc(c3)-c3ccc4c(c3)c(c(-c3ccccc3CCOC)n4C(C)(C)C#N)CC(C)(C)COC(=O)[C@@H]3CCCN(N3)C2=O)C(C)C)C1 [Example A034] | 1 to 10 µM | 
21 | C=CC(=O)N1CC[C@H](C(=O)N(C)[C@H](C(=O)N[C@H]2Cc3cc(O)cc(c3)-c3ccc4c(c3)c(c(-c3ccc(C5CCN(C)CC5)cc3)n4CC)CC(C)(C)COC(=O)[C@@H]3CCCN(N3)C2=O)C(C)C)C1 [Example A039] | 1 to 10 µM | 1000 to 10000 nM
22 | C=CC(=O)N1CC[C@H](C(=O)N(C)[C@H](C(=O)N[C@H]2Cc3cc(O)cc(c3)-c3ccc4c(c3)c(c(-c3ccc5c(c3)CCN(C)C5)n4CC)CC(C)(C)COC(=O)[C@@H]3CCCN(N3)C2=O)C(C)C)C1 [Example A040] | > 10 µM | 1000 to 10000 nM
23 | C=CC(=O)N1C[C@H](C)[C@H](C(=O)N(C)[C@H](C(=O)N[C@H]2Cc3cc(O)cc(c3)-c3ccc4c(c3)c(c(-c3ccccc3CCOC)n4CC)CC(C)(C)COC(=O)[C@@H]3CCCN(N3)C2=O)C(C)C)C1 [Example A041] | > 10 µM | 100 to 1000 nM
24 | C=CC(=O)N1CC[C@H](C(=O)N(C)[C@H](C(=O)N[C@H]2Cc3cc(N)cc(c3)-c3ccc4c(c3)c(c(-c3ccccc3COC)n4CC)CC(C)(C)COC(=O)[C@@H]3CCCN(N3)C2=O)C(C)C)C1 [Example A042] | > 10 µM | > 10000 nM
25 | C=CC(=O)N1C[C@H](C)[C@H](C(=O)N(C)[C@H](C(=O)N[C@H]2Cc3cc(O)cc(c3)-c3ccc4c(c3)c(c(-c3ccccc3CN(C)C)n4CC)CC(C)(C)COC(=O)[C@@H]3CCCN(N3)C2=O)C2CCCC2)C1 [Example A043] | 1 to 10 µM | 100 to 1000 nM
26 | C=CC(=O)N1CC[C@H](C(=O)N(C)[C@H](C(=O)N[C@H]2Cc3cc(O)cc(c3)-c3ccc4c(c3)c(c(-c3cccnc3COCC)n4CC)CC(C)(C)COC(=O)[C@@H]3CCCN(N3)C2=O)C(C)C)C1 [Example A044] | 1 to 10 µM | 100 to 1000 nM
27 | C=CC(=O)N1CC[C@H](C(=O)N(C)[C@H](C(=O)N[C@H]2Cc3cc(O)cc(c3)-c3ccc4c(c3)c(c(-c3cncc(C#N)c3)n4CC)CC(C)(C)COC(=O)[C@@H]3CCCN(N3)C2=O)C(C)C)C1 [Example A062] | > 10 µM | 
28 | C=CC(=O)N1CC[C@H](C(=O)N(C)[C@H](C(=O)N[C@H]2Cc3cc(O)cc(c3)-c3ccc4c(c3)c(c(-c3cnccc3[C@H](C)OC)n4CC)CC(C)(C)COC(=O)[C@@H]3CCCN(N3)C2=O)C(C)C)C1 [Example A076] | 0.1 to 1 µM | 
29 | C=CC(=O)N1CC[C@H](C(=O)N(C)[C@H](C(=O)N[C@H]2Cc3cc(O)cc(c3)-c3ccc4c(c3)c(c(-c3cc(F)cnc3COC)n4CC)CC(C)(C)COC(=O)[C@@H]3CCCN(N3)C2=O)C(C)C)C1 [Example A082] | 1 to 10 µM | 
30 | C=CC(=O)N1CC[C@H](C(=O)N(C)[C@H](C(=O)N[C@H]2Cc3cc(O)cc(c3)-c3ccc4c(c3)c(c(-c3cnccc3COC)n4CC)CC(C)(C)COC(=O)[C@@H]3CCCN(N3)C2=O)C(C)C)C1 [Example A091] | 1 to 10 µM | 
31 | CCn1c(-c2cccnc2COC)c2c3cc(ccc31)-c1cc(O)cc(c1)C[C@H](NC(=O)[C@H](C(C)C)N(C)C(=O)[C@H]1CCN(C(=O)C#CCN(C)C)C1)C(=O)N1CCC[C@H](N1)C(=O)OCC(C)(C)C2 [Example A096] | 1 to 10 µM | 
32 | C=CC(=O)N1CC[C@H](C(=O)N(C)[C@H](C(=O)N[C@H]2Cc3cc(O)cc(c3)-c3ccc4c(c3)c(c(-c3ccccc3CO)n4CC)CC(C)(C)COC(=O)[C@@H]3CCCN(N3)C2=O)C(C)C)C1 [Examples A004] | > 10 µM | 
